Measurements reported in ChEMBL document CHEMBL1201862, “PubChem BioAssay data set” (2004).
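Exposure lasted 48 hours, with cells grown in 96-well plates and compounds tested at five concentrations. At the GI50, growth is halved.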 Calls of active or inactive are those of the source. Cut-off read from the data, not from the text of the source: active = GI50 up to about 1.1 µM and inactive = higher.

Assays:
Assay in all cases: DTP human tumour cell line panel, 48 h
A549 = test system: A549
BT-549 = test system: BT-549
CAKI-1 = test system: CAKI-1
COLO 205 = test system: COLO 205
DU-145 = test system: DU-145
HCT-116 = test system: HCT-116
HOP-92 = test system: HOP-92
HT-29 = test system: HT-29
KM12 = test system: KM12
LOX IMVI = test system: LOX IMVI
M14 = test system: M14
MCF7 = test system: MCF7
MDA-MB-231 = test system: MDA-MB-231
Malme-3M = test system: Malme-3M
NCI-H226 = test system: NCI-H226
NCI-H23 = test system: NCI-H23
OVCAR-5 = test system: OVCAR-5
PC-3 = test system: PC-3
SF-268 = test system: SF-268
SF-539 = test system: SF-539

Measured: GI50

C=C1C2CC[C@@](C)(O)C2[C@H]2OC(=O)C(=C)[C@@H]2C[C@H]1O (stereo not given in full)
inactive: A549 29.3 µM | BT-549 10.3 µM | CAKI-1 12.1 µM | COLO 205 15 µM | DU-145 15.5 µM | HCT-116 27 µM | HOP-92 27.5 µM | HT-29 16.1 µM | KM12 19.7 µM | LOX IMVI 15 µM | M14 13.8 µM | MCF7 14.2 µM | MDA-MB-231 18.8 µM | Malme-3M 15.2 µM | NCI-H226 18 µM | NCI-H23 17.7 µM | OVCAR-5 29 µM | PC-3 34.4 µM | SF-268 49.2 µM | SF-539 14.2 µM

C=C1C(=O)OC2C1CCC(=C)C1CC(O)C(=C)C12 (stereo not given)
inactive: A549 23.8 µM | BT-549 15.3 µM | CAKI-1 4.28 µM | COLO 205 2.55 µM | DU-145 15 µM | HCT-116 12.7 µM | HOP-92 3.21 µM | HT-29 5.57 µM | KM12 13.7 µM | LOX IMVI 7.52 µM | M14 17.5 µM | MCF7 7.43 µM | MDA-MB-231 16.3 µM | Malme-3M 14.3 µM | NCI-H226 27.1 µM | NCI-H23 18.7 µM | OVCAR-5 11.5 µM | PC-3 13.4 µM | SF-268 15.4 µM | SF-539 16.9 µM

COc1cccc(C2c3cc4c(cc3OC(NNS(=O)(=O)c3ccc(C)cc3)C2C)OCO4)c1OC (stereo not given)
inactive: A549 2.62 µM | BT-549 2.2 µM | CAKI-1 2.29 µM | COLO 205 1.83 µM | DU-145 2.29 µM | HCT-116 1.78 µM | HOP-92 2.15 µM | HT-29 3.18 µM | KM12 3.3 µM | LOX IMVI 2.08 µM | M14 3.59 µM | MCF7 2.99 µM | MDA-MB-231 5.47 µM | Malme-3M 3.61 µM | NCI-H226 2.56 µM | NCI-H23 4.06 µM | OVCAR-5 4.82 µM | PC-3 2.97 µM | SF-268 4.3 µM | SF-539 2.97 µM

C[n+]1c(-c2ccc(/C=N/NC(=O)c3ccc(C(=O)N/N=C/c4ccc(-c5cn6ccccc6[n+]5C)cc4)cc3)cc2)cn2ccccc21
inactive: A549 > 100 µM | BT-549 > 100 µM | CAKI-1 > 72.9 µM | COLO 205 > 100 µM | DU-145 > 100 µM | HCT-116 > 100 µM | HOP-92 > 100 µM | HT-29 > 100 µM | KM12 > 100 µM | LOX IMVI > 100 µM | M14 98.6 µM | MCF7 > 100 µM | MDA-MB-231 > 74.3 µM | Malme-3M > 54.6 µM | NCI-H226 > 100 µM | NCI-H23 > 100 µM | OVCAR-5 > 100 µM | PC-3 > 100 µM | SF-268 > 100 µM | SF-539 > 84.9 µM

O=c1c(Cc2ccccc2Cc2c(O)oc3ccccc3c2=O)c(O)oc2ccccc12
inactive: A549 > 100 µM | BT-549 > 100 µM | CAKI-1 > 100 µM | COLO 205 > 100 µM | DU-145 > 100 µM | HCT-116 > 100 µM | HOP-92 > 100 µM | HT-29 > 100 µM | KM12 > 100 µM | LOX IMVI > 100 µM | M14 > 100 µM | MCF7 > 100 µM | MDA-MB-231 > 100 µM | Malme-3M > 100 µM | NCI-H226 > 100 µM | NCI-H23 > 100 µM | OVCAR-5 > 100 µM | PC-3 > 100 µM | SF-268 > 100 µM | SF-539 > 100 µM
